Test results published in ChEMBL document CHEMBL4024706 (Eur J Med Chem, 2017).

Legend:
[1] = molecular target: Protein kinase C delta type (Homo sapiens) (UniProt Q05655); test: Inhibition of wild-type human partial length PRKCD (Q328 to D676 residues) expressed in bacterial expression system assessed as residual activity at 1 uM by Kinomescan method relative to control
[2] = molecular target: Tyrosine-protein kinase receptor UFO (Homo sapiens) (UniProt P30530); test: Inhibition of wild-type human partial length AXL (R497 to Y821 residues) expressed in bacterial expression system assessed as residual activity at 1 uM by Kinomescan method relative to control
[3] = test system: Epidermal growth factor receptor (Homo sapiens), P00533 [G719S]; test: Inhibition of human partial length EGFR G719S mutant (R669 to V1011 residues) expressed in bacterial expression system assessed as residual activity at 1 uM by Kinomescan method relative to control
[4] = molecular target: Tyrosine-protein kinase JAK1 (Homo sapiens) (UniProt P23458); test: Inhibition of wild-type human partial length JAK1 JH1 catalytic domain (V856 to K1154 residues) expressed in bacterial expression system assessed as residual activity at 1 uM by Kinomescan method relative to control
Sequence of Tyrosine-protein kinase JAK1 (Homo sapiens) (P23458 whole entry, the tested form may be a part): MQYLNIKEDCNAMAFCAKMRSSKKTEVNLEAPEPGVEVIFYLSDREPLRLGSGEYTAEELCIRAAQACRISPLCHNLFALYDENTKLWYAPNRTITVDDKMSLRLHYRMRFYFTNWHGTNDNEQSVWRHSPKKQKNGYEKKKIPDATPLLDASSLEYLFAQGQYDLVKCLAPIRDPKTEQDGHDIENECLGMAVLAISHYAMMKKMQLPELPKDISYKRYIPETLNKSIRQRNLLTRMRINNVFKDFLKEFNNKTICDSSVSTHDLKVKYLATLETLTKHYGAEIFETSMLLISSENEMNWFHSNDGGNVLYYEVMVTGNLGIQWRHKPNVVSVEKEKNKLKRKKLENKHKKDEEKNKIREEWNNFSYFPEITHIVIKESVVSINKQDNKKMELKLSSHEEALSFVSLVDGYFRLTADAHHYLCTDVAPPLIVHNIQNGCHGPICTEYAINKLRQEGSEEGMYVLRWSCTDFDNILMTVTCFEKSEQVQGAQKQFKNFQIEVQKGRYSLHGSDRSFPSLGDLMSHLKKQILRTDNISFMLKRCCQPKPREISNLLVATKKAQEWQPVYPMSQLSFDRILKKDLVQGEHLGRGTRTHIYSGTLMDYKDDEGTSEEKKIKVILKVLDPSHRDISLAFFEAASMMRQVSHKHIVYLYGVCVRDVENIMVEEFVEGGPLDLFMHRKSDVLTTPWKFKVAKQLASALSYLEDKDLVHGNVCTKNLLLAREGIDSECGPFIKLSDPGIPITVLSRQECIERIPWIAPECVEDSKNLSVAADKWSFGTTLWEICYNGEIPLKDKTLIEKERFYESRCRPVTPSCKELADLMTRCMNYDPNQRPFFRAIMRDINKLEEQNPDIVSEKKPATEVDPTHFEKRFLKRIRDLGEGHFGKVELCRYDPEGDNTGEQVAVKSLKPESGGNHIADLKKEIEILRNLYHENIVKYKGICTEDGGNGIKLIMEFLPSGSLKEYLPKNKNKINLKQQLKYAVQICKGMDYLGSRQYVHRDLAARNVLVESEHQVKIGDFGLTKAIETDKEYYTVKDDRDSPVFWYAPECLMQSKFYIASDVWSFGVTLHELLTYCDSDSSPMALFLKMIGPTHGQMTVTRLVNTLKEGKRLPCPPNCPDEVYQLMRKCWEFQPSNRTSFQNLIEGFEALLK

[5] = molecular target: Calcium/calmodulin-dependent protein kinase type 1B (Homo sapiens) (UniProt Q6P2M8); test: Inhibition of wild-type human partial length CAMK1B (W9 to A311 residues) expressed in mammalian expression system assessed as residual activity at 1 uM by Kinomescan method relative to control
Sequence of Calcium/calmodulin-dependent protein kinase type 1B (Homo sapiens) (Q6P2M8 whole entry, the tested form may be a part): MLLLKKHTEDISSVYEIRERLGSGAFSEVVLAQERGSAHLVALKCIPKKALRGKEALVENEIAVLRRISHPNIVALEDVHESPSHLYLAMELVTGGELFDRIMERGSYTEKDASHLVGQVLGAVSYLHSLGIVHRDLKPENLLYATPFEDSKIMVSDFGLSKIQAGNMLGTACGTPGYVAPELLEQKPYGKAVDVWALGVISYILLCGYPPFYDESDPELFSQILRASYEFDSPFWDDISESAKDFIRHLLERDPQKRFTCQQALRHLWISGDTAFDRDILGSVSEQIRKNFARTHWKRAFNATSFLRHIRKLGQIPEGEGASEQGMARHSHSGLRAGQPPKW

[6] = molecular target: Tyrosine-protein kinase SYK (Homo sapiens) (UniProt P43405); test: Inhibition of wild-type human partial length SYK (D354 to N635 residues) expressed in bacterial expression system assessed as residual activity at 1 uM by Kinomescan method relative to control
[7] = molecular target: Aurora kinase A (Homo sapiens) (UniProt O14965); test: Inhibition of wild-type human partial length AURKA (E122 to K401 residues) expressed in mammalian expression system assessed as residual activity at 1 uM by Kinomescan method relative to control
[8] = molecular target: Casein kinase I isoform epsilon (Homo sapiens) (UniProt P49674); test: Inhibition of wild-type human full length CSNK1E (M1 to K416 residues) expressed in bacterial expression system assessed as residual activity at 1 uM by Kinomescan method relative to control
Sequence of Casein kinase I isoform epsilon (Homo sapiens) (P49674 whole entry, looked up, the tested form may be a part, canonical isoform): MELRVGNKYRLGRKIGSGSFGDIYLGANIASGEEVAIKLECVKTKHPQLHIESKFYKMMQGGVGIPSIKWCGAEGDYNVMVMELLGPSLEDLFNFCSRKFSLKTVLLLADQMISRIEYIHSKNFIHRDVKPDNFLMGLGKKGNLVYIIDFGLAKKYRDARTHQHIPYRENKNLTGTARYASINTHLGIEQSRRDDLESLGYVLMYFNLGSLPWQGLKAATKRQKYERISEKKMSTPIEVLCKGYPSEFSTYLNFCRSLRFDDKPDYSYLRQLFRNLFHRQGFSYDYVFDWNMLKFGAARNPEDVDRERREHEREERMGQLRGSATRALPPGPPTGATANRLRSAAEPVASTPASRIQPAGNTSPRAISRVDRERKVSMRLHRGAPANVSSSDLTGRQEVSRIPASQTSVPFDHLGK

[9] = molecular target: Mitogen-activated protein kinase 11 (Homo sapiens) (UniProt Q15759); test: Inhibition of wild-type human full length p38-beta (M1 to Q364 residues) expressed in bacterial expression system assessed as residual activity at 1 uM by Kinomescan method relative to control
Sequence of Mitogen-activated protein kinase 11 (Homo sapiens) (Q15759 whole entry, the tested form may be a part): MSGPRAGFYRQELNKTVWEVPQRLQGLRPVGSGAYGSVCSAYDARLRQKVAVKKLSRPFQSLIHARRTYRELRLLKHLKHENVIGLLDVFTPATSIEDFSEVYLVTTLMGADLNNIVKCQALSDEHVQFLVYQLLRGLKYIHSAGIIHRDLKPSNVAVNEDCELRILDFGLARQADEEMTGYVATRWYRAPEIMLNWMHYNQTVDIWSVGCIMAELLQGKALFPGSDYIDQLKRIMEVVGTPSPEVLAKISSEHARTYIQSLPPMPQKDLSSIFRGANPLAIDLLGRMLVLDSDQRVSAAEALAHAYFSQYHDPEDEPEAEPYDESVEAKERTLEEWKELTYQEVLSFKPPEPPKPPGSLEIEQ

[10] = molecular target: Serine/threonine-protein kinase tousled-like 1 (Homo sapiens) (UniProt Q9UKI8); test: Inhibition of wild-type human partial length TLK1 (K447 to A754 residues) expressed in bacterial expression system assessed as residual activity at 1 uM by Kinomescan method relative to control
[11] = molecular target: Dual specificity mitogen-activated protein kinase kinase 5 (Homo sapiens) (UniProt Q13163); test: Inhibition of wild-type human partial length MEK5 (L98 to P448 residues) expressed in mammalian expression system assessed as residual activity at 1 uM by Kinomescan method relative to control
[12] = molecular target: Epithelial discoidin domain-containing receptor 1 (Homo sapiens) (UniProt Q08345); test: Inhibition of wild-type human partial length DDR1 (R565 to V876 residues) expressed in bacterial expression system assessed as residual activity at 1 uM by Kinomescan method relative to control
[13] = Cmax in Sprague-Dawley rat at 1 mg/kg, iv by LC-MS/MS method; type: ADME, organism-based; parameters: dose 1 mg/kg, route intravenous; conditions: in vivo
[14] = molecular target: Serine/threonine-protein kinase Nek1 (Homo sapiens) (UniProt Q96PY6); test: Inhibition of wild-type human partial length NEK1 (M1 to K278 residues) expressed in bacterial expression system assessed as residual activity at 1 uM by Kinomescan method relative to control
[15] = molecular target: Serine/threonine-protein kinase pim-2 (Homo sapiens) (UniProt Q9P1W9); test: Inhibition of wild-type human partial length PIM2 (M1 to E291 residues) expressed in bacterial expression system assessed as residual activity at 1 uM by Kinomescan method relative to control
[16] = molecular target: Proto-oncogene tyrosine-protein kinase receptor Ret (Homo sapiens) (UniProt P07949); test: Inhibition of wild-type human partial length RET (E713 to D1014 residues) expressed in bacterial expression system assessed as residual activity at 1 uM by Kinomescan method relative to control
[17] = molecular target: MAP kinase-interacting serine/threonine-protein kinase 1 (Homo sapiens) (UniProt Q9BUB5); test: Inhibition of wild-type human full length MKNK1 (M1 to L424 residues) expressed in mammalian expression system assessed as residual activity at 1 uM by Kinomescan method relative to control
[18] = molecular target: Serine/threonine-protein kinase 32C (Homo sapiens) (UniProt Q86UX6); test: Inhibition of wild-type human partial length YANK3 (M68 to G486 residues) expressed in bacterial expression system assessed as residual activity at 1 uM by Kinomescan method relative to control
[19] = molecular target: Dual specificity mitogen-activated protein kinase kinase 1 (Homo sapiens) (UniProt Q02750); test: Inhibition of wild-type human full length MEK1 (M1 to V393 residues) expressed in mammalian expression system assessed as residual activity at 1 uM by Kinomescan method relative to control
[20] = test system: ALK tyrosine kinase receptor (Homo sapiens), Q9UM73 [C1156Y]; test: Inhibition of […] human partial length ALK C1156Y mutant (I1088 to E1409 residues) expressed in mammalian expression system assessed as residual activity at 1 uM by Kinomescan method relative to control
[21] = Tmax in Sprague-Dawley rat at 1 mg/kg, iv by LC-MS/MS method; type: ADME, organism-based; conditions: in vivo
[22] = molecular target: Ephrin type-B receptor 6 (Homo sapiens) (UniProt O15197); test: Inhibition of wild-type human partial length EPHB6 (Q634 to P948 residues) expressed in mammalian expression system assessed as residual activity at 1 uM by Kinomescan method relative to control
[23] = molecular target: Serine/threonine-protein kinase ICK (Homo sapiens) (UniProt Q9UPZ9); test: Inhibition of wild-type human partial length ICK (M1 to P314 residues) expressed in mammalian expression system assessed as residual activity at 1 uM by Kinomescan method relative to control
[24] = molecular target: Microtubule-associated serine/threonine-protein kinase 1 (Homo sapiens) (UniProt Q9Y2H9); test: Inhibition of wild-type human partial length MAST1 (S346 to V730 residues) expressed in mammalian expression system assessed as residual activity at 1 uM by Kinomescan method relative to control
Sequence of Microtubule-associated serine/threonine-protein kinase 1 (Homo sapiens) (Q9Y2H9 whole entry, looked up, the tested form may be a part): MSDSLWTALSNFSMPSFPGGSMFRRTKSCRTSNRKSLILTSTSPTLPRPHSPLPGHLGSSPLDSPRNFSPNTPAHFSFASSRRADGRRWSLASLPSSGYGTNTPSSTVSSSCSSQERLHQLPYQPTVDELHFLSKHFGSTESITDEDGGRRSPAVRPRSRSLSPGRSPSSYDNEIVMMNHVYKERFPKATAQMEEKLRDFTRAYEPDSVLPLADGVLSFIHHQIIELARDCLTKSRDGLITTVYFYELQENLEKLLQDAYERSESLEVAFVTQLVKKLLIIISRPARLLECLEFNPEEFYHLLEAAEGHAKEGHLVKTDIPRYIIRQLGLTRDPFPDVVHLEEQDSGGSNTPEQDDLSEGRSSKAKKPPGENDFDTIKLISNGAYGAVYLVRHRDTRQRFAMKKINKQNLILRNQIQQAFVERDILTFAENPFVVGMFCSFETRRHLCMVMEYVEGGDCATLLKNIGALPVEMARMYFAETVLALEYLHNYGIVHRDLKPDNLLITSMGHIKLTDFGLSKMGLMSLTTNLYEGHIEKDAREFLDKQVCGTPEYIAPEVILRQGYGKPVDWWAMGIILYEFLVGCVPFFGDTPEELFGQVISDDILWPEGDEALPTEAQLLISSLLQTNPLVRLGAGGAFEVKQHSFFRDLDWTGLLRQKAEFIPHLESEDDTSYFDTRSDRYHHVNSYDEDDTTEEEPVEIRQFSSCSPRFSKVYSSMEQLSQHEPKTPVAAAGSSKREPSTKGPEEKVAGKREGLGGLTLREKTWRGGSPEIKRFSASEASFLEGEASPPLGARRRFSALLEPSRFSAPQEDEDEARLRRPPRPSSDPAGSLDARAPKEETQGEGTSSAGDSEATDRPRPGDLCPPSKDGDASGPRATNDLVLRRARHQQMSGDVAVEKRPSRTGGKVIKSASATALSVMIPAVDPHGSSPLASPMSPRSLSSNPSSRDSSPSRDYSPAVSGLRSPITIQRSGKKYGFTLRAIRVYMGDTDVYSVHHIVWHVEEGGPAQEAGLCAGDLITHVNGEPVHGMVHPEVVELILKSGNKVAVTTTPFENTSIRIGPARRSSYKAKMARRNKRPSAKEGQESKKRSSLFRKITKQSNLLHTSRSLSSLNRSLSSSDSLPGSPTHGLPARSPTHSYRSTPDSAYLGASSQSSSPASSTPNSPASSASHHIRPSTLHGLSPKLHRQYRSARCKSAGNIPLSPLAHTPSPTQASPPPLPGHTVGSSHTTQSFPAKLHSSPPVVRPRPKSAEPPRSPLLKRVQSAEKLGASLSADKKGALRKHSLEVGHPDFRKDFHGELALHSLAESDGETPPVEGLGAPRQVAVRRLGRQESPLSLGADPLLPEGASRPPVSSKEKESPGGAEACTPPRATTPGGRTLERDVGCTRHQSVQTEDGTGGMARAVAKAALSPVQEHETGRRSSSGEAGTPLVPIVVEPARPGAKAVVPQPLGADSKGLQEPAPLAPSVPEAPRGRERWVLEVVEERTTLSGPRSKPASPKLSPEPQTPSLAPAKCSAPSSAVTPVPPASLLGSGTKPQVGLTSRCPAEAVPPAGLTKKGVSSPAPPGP

[25] = molecular target: Megakaryocyte-associated tyrosine-protein kinase (Homo sapiens) (UniProt P42679); test: Inhibition of wild-type human full length CTK (M43 to P508 residues) expressed in mammalian expression system assessed as residual activity at 1 uM by Kinomescan method relative to control
[26] = molecular target: Receptor-type tyrosine-protein kinase FLT3 (Homo sapiens) (UniProt P36888); test: Inhibition of wild-type human partial length autoinhibited FLT3 (H564 to Y969 residues) expressed in mammalian expression system assessed as residual activity at 1 uM by Kinomescan method relative to control
Sequence of Receptor-type tyrosine-protein kinase FLT3 (Homo sapiens) (P36888 whole entry, the tested form may be a part): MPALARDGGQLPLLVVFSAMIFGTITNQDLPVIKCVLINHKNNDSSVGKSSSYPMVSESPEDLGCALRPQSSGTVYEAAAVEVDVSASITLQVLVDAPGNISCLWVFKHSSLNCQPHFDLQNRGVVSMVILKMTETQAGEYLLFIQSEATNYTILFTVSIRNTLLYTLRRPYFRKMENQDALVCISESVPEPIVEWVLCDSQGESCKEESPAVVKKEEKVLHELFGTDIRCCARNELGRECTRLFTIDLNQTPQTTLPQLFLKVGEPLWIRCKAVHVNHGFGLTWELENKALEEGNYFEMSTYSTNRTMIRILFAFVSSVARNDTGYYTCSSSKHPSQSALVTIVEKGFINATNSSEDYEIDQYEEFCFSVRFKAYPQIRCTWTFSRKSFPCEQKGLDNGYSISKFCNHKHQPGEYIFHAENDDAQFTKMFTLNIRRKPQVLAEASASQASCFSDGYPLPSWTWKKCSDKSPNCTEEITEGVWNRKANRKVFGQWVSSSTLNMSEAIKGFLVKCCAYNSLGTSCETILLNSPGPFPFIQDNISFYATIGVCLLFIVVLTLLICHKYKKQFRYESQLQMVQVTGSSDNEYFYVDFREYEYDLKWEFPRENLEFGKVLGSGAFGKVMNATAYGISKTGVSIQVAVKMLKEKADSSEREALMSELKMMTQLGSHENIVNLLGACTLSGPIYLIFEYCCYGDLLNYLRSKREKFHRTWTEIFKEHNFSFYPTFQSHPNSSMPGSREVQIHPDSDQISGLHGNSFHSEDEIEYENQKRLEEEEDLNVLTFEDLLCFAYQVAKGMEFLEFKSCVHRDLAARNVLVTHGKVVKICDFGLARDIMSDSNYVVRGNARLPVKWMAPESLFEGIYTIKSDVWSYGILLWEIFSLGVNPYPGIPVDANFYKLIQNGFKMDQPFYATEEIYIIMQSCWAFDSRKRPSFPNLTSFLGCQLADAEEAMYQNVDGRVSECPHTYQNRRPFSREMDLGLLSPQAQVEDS

C=CC(=O)Nc1cc(Nc2cc(-c3cccc(NC(=O)c4ccc(C(C)(C)C)cc4)c3C)cn(C)c2=O)ccc1C(=O)N1CCOCC1
Activity [1]: 96%
Activity [2]: 86%
Activity [3]: 100%
Activity [4]: 100%
Activity [5]: 85%
Activity [6]: 92%
Activity [7]: 61%
Activity [8]: 100%
Activity [9]: 100%
Activity [10]: 99%
Activity [11]: 98%
Activity [12]: 100%
Cmax [13]: 897 ng/mL
Activity [14]: 100%
Activity [15]: 90%
Activity [16]: 87%
Activity [17]: 91%
Activity [18]: 97%
Activity [19]: 100%
Activity [20]: 94%
Tmax [21]: 1.02 min
Activity [22]: 100%
Activity [23]: 100%
Activity [24]: 98%
Activity [25]: 100%
Activity [26]: 100%
